Legend:
[1] = target: T1, LIN28B/pre-let-7a-2 binding (Homo sapiens, UniProt Q6ZN17); test: FRET assay, EGFP-tagged LIN28B and BHQ-1 labelled pre-let-7a-2; details: doses 1.25 uM-20 uM; compared with LN1632
T1 construct: made in house; host or cells: stably transduced HEK cells; used as diluted protein lysate, not purified
T1 sequence (Q6ZN17 1-250): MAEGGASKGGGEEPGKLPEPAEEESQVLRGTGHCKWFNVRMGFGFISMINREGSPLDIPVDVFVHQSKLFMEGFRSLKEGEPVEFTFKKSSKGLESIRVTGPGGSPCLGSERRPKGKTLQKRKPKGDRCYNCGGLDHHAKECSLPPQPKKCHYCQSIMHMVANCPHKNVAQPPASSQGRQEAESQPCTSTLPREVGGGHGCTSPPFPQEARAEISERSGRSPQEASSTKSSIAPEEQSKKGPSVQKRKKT
Experimental: As described herein, compounds of formula (I) and (II) show Lin28/let-7 inhibitory activity in FRET assays in vitro and in LSCs and LSC-like Kasumi-1 cells. FRET assay was performed as previously described (51).
In order to improve binding and inhibitory capacity of a compound to LIN28b, we predicted the binding mode of LN1632 to LIN28B. […] With this model in hand, we synthesized novel compounds with improved binding capacity to Lin28b (JGJ002-JGJ008, FIG. 8). Compounds were screened using a previously described FRET-assay with an EGFP-tagged LIN28B as donor and a BHQ-1 quencher labelled pre-let-7a-2 (pre-let-7a-2-BHQ1) as acceptor (51). Briefly, recombinant LIN28B-EGFP was harvested from stably transduced HEK cells and diluted with binding buffer (300 mM NaCl, 25 mM HEPES pH 7.2, 10 μM ZnCl2, 1% Odyssey Blocking Buffer, 0.05% Tween 20, 0.5 mM TCEP) in order to adjust ideal FRET-quenching signal intensity. Protein lysate and compounds (JGJ001-JGJ008) were pre-incubated in doses ranging from 1.25 uM-20 uM for 20 min in 100 uL diluted protein lysate. Subsequently pre-let-7a-2-BHQ1 was added to the mixture (at 6.25 nM) and EGFP-LIN28B donor emission was measured using a Tecan Spark Plate Reader ([…], excitation at 488 nm, emission read-out at […], 30 flashes/s). […] Increased endogenous let-7 miRNA levels can target a panoply of LCS and cancer stem cell hallmark genes thus inhibiting tumor growth.
(§1) To test the structure-activity relationship, 39 LN1632-related analogs (JGJ001-39) were synthesized and their potency and specificity to inhibit LIN28B-RNA binding activity and upregulate mature let-7 miRNA levels was measured. […] The dual luciferase reporter assay was performed as previously described (89).

Caco2 permeability = format: in vitro ADME; details: human, Caco-2, Conc. 5 uM
[2] = Microsomal stability, CD-1 Mouse; format: in vitro ADME; details: Conc. 5 uM
[3] = Microsomal stability, Human; format: in vitro ADME; details: Conc. 5 uM
CYP 1A2 = target: T2, CYP 1A2 (Homo sapiens, UniProt P05177); test: CYP inhibition 1A2; format: in vitro ADME; design: unit not given here; details: Conc. 10 uM
T2 sequence (P05177 1-516): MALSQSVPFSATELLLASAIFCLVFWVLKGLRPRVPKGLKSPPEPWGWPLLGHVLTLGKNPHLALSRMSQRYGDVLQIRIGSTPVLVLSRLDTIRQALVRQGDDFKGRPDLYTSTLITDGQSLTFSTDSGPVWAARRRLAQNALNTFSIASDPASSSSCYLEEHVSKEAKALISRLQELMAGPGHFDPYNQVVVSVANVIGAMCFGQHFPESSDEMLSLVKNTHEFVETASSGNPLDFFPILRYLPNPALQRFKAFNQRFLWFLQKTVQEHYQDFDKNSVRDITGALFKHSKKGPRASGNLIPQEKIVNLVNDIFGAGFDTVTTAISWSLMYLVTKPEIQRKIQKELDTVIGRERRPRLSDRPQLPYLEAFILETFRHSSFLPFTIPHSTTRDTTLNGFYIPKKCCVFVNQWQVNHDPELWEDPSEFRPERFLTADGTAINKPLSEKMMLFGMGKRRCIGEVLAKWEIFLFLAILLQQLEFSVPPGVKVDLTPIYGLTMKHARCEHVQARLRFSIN

CYP 2B6 = target: T3, CYP 2B6 (Homo sapiens, UniProt P20813); test: CYP inhibition 2B6; format: in vitro ADME; design: unit not given here; details: Conc. 10 uM
T3 sequence (P20813 1-491): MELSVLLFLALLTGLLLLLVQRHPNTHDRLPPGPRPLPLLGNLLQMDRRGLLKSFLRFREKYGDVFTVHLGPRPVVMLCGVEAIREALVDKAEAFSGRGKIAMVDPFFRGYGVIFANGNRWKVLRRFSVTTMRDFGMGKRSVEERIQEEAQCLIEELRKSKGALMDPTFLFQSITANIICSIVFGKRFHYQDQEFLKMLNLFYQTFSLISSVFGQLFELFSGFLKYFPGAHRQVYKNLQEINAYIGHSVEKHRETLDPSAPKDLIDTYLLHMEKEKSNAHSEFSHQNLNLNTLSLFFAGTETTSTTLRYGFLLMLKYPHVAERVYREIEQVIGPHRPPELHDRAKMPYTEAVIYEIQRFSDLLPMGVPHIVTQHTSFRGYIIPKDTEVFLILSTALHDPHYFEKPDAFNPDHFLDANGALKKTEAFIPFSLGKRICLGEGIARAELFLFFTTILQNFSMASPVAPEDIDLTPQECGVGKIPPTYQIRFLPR

CYP 2C8 = target: T4, CYP 2C8 (Homo sapiens, UniProt P10632); test: CYP inhibition 2C8; format: in vitro ADME; design: unit not given here; details: Conc. 10 uM
T4 sequence (P10632 1-490): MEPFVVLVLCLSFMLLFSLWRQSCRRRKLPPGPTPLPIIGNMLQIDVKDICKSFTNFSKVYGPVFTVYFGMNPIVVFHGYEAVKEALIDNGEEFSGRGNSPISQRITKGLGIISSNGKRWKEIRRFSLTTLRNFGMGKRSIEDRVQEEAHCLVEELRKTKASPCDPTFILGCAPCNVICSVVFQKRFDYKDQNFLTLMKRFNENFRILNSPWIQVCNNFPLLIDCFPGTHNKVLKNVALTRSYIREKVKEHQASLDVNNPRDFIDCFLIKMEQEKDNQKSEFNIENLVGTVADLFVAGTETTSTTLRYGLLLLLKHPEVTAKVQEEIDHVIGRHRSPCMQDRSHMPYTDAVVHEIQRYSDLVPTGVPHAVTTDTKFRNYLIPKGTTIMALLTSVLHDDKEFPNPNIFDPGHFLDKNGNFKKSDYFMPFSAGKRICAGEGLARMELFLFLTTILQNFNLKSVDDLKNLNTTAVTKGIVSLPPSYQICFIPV

CYP 2C9 = CYP 2C9 (Homo sapiens, UniProt P11712); test: CYP inhibition 2C9; format: in vitro ADME; design: unit not given here; details: Conc. 10 uM
CYP 2C9, sequence (P11712 whole entry): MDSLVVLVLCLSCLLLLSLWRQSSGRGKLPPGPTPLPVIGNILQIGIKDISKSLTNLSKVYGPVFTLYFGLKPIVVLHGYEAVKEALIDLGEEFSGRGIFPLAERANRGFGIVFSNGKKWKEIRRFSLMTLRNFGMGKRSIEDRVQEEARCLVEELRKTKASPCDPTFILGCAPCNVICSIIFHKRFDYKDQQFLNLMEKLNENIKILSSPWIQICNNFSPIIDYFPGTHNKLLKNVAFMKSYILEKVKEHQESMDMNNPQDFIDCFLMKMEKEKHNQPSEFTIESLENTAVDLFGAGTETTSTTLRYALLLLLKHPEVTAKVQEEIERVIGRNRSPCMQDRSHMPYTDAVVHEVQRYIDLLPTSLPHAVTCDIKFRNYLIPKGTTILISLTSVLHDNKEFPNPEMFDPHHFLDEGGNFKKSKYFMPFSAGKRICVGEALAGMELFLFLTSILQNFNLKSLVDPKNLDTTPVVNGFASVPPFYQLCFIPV

CYP 2C19 = CYP 2C19 (Homo sapiens, UniProt P33261); test: CYP inhibition 2C19; format: in vitro ADME; design: unit not given here; details: Conc. 10 uM
CYP 2C19, sequence (P33261 whole entry): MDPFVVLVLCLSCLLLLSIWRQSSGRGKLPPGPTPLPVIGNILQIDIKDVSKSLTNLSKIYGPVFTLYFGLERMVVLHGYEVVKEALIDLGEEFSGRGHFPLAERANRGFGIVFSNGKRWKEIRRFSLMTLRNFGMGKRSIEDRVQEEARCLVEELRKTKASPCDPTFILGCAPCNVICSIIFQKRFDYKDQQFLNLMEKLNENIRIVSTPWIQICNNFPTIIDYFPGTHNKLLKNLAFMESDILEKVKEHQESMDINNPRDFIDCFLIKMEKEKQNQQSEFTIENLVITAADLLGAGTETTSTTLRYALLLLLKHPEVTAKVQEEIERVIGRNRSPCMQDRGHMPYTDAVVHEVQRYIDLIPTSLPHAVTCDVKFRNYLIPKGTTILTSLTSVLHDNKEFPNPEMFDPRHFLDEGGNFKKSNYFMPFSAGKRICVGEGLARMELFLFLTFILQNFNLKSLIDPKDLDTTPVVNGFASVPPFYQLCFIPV

CYP 2D6 = CYP 2D6 (Homo sapiens, UniProt P10635); test: CYP inhibition 2D6; format: in vitro ADME; design: unit not given here; details: Conc. 10 uM
CYP 2D6, sequence (P10635 whole entry): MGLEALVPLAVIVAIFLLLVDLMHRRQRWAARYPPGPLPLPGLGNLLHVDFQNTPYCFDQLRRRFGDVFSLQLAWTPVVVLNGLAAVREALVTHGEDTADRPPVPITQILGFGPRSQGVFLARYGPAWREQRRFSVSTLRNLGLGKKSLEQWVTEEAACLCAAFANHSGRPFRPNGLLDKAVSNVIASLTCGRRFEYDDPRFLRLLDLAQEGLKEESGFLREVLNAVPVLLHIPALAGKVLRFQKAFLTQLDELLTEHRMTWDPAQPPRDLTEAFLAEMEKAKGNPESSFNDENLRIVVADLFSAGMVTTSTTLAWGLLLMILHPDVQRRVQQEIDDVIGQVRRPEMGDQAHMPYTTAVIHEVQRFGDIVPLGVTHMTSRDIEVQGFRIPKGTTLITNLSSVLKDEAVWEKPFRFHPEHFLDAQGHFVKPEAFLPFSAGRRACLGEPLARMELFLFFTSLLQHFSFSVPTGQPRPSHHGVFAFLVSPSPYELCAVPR

mature let-7 miRNAs = test: Dual luciferase reporter assay of mature let-7 miRNAs in HepG2 cells; format: cell-based; details: 3-10 μM, compared with LN1632
Experimental: as §1

H1975 = test: Cell viability, MTT assay, H1975; format: cell-based; details: Homo sapiens, NCI-H1975, H1975 (Lung)
Experimental: (§2) To measure cell viability, cell titer glow (CTG, Promega CellTiter-Glo 2.0 Assay) and MTT assays (SigmaAldrich, Cell Proliferation Kit I) were performed. Briefly, cells were serum starved overnight prior to seeding in 96-well plates. Following 24 h incubation, cells were treated with increasing concentrations of JGJ compounds for 96 hr. At assay read-out, CellTiter-Glo reagent was added and luminescence was measured after 10-minutes incubation at room temperature. For the MTT assay, MTT labeling reagent was added and incubated for 4 h. Subsequently, medium was removed and 50 μL DMSO was added to solubilize the crystals, and absorbance was measured at 570 nm. Cell viability was calculated as (Sample-Background)/(Control-Background).

A549 = test: Cell viability, MTT assay, A549; format: cell-based; details: Homo sapiens, A549 (Lung)
Experimental: as §2

[4] = microsomes, read-out: Microsomal stability T½

## Cc1cnc2ccc(-c3cccc([N+](=O)[O-])c3)nn12 [JGJ005, 3-Methyl-6-(3-nitrophenyl)imidazo[1,2-b]pyridazine]
[1]
  Inhibition of LIN28B binding to pre-let-7a (FRET signal): greater inhibition of the LIN28B/pre-let-7a2 binding than the original compound LN1632

## CC(=O)N(C)c1cccc(-c2ccc3ncc(C)n3n2)c1 [JGJ008, N-Methyl-N-(3-(3-methylimidazo[1,2-b]pyridazin-6-yl)phenyl)acetamide]
[1]
  Inhibition of LIN28B binding to pre-let-7a (FRET signal): greater inhibition of the LIN28B/pre-let-7a2 binding than the original compound LN1632

## CC(=O)Nc1cc(F)cc(-c2ccc3ncc(C)n3n2)c1 [JGJ026, N-(3-Fluoro-5-(3-methylimidazo[1,2-b]pyridazin-6-yl)phenyl)acetamide]
Caco2 permeability
  Papp A→B at 5 uM: 27.2 ×10⁻⁶ cm/s
  Papp B→A at 5 uM: 25 ×10⁻⁶ cm/s
  efflux ratio at 5 uM: 0.6
Caco2 permeability; read-out: Caco2 Mean A-B % Recovery
  recovery at 5 uM: 84%
[2]
  Microsomal stability % Remaining at T30: T30 = 17%
[2]; microsomes
  microsomal CLint at 5 uM: 118 µL/min/mg
[2]; [4]
  half-life at 5 uM: 11.8 min
[3]
  Microsomal stability % Remaining at T30: T30 = 54.7%
[3]; microsomes
  microsomal CLint at 5 uM: 38.2 µL/min/mg
[3]; [4]
  half-life at 5 uM: 36.2 min
CYP 1A2
  CYP inhibition 1A2: 96.2
CYP 2B6
  CYP inhibition 2B6: 30.9
CYP 2C8
  CYP inhibition 2C8: 61.1
CYP 2C9
  CYP inhibition 2C9: 48.8
CYP 2C19
  CYP inhibition 2C19: 35
CYP 2D6
  CYP inhibition 2D6: 67.8
[1]
  Inhibition of LIN28B binding to pre-let-7a (FRET signal): inhibit LIN28's RNA-binding capacity significantly more than compound LN1632
Mature let-7 miRNAs
  Upregulation of mature let-7 miRNAs: upregulated mature let-7 miRNAs at significantly lower doses than LN1632

## Nc1cccc(-c2ccc3ncc(-c4ccccc4)n3c2)c1 [JGJ032, 3-(3-Phenylimidazo[1,2-a]pyridin-6-yl)aniline]
[1]
  Inhibition of LIN28B binding to pre-let-7a (FRET signal): inhibit LIN28's RNA-binding capacity significantly more than compound LN1632

## C=CC(=O)Nc1cc(Nc2nccc(-c3cn(C)c4ccccc34)n2)c(OC)cc1N(C)CCN(C)C [Osimertinib, reference compound]
H1975
  IC50: 21 µM
A549
  IC50: 11 µM

From US20230059009A1, “INHIBITORS OF LIN28 AND METHODS OF USE THEREOF” (The Regents of the University of California, priority 2019, published 2023)
